Measurements published in patent US7498343B2, “Mycobacterial inhibitors” (priority 2002, dated 2009).
≈ marks a conversion by molar mass, not a printed value. Like-named read-outs stand apart in the source and are kept apart here.

Legend:
[1] = system: Mycobacterium tuberculosis (strain H37RV); test: In-vitro method for testing compounds against M. tuberculosis (resazurin growth inhibition, MIC); type: cell-based; settings: MIC data representing IC90's, 7 days incubation, resazurin fluorescence
M. Smegmatis ATCC607 = test: In-vitro method for testing compounds for anti-bacterial activity against strain M. smegmatis ATCC607 (Alamar Blue growth inhibition); type: cell-based; settings: M. smegmatis ATCC607, pIC50 = -logIC50, IC50 in M, 50% inhibitory concentration for bacterial growth, 48 hours incubation; for IC50: Mycolicibacterium smegmatis, ATCC607, 48 h, read-out: pIC50 (converted)
Summary of the method: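 About 250 CFU/well M. smegmatis ATCC607 in Mueller-Hinton broth exposed to five-fold serial compound dilutions, 48 h at 37 °C, humidified 5% CO2. Growth read by Alamar Blue fluorescence (ex 530/em 590 nm) after 2 h further incubation; % growth inhibition calculated.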

[2] = Mycobacterium tuberculosis, H37RV, 168 h, read-out: MIC

COc1nc2ccc(Br)cc2cc1C(c1ccc(C)cc1)C(O)(CCN(C)C)c1cccc2ccccc12 (centres unmarked) [Compound 71]
MIC [1]: 0.14 microgram/ml
pIC50 (M. Smegmatis ATCC607): 8.5
melting point: 174 °C

COc1nc2ccc(Br)cc2cc1C(c1ccccc1)C(O)(CCN(C)C)c1cccc(F)c1F (centres unmarked) [Compound 113]
MIC [1]: 0.27 microgram/ml
pIC50 (M. Smegmatis ATCC607): 8.6
melting point: 185 °C

CCOc1nc2ccc(Br)cc2cc1C(c1ccccc1)C(O)(CCN(C)C)c1ccccc1 (centres unmarked) [Compound 5]
MIC [1]: 0.33 microgram/ml
pIC50 (M. Smegmatis ATCC607): 7.8
melting point: 162 °C

CN(C)CCC(O)(c1ccccc1)C(c1ccccc1)c1cnc2ccc(Br)cc2c1 (centres unmarked) [Compound 8]
MIC [1, 2]: 23.8 µg/mL (≈ 50.1 µM)
pIC50 (M. Smegmatis ATCC607): 5.7
melting point: 180 °C

COc1nc2ccc(Br)cc2cc1C(c1ccc(C)cc1)C(O)(CCN(C)C)c1cccc2ccccc12 (centres unmarked) [Compound 72]
MIC [1]: 3.59 microgram/ml
pIC50 (M. Smegmatis ATCC607): 6.9
melting point: 178 °C

CN(C)CCC(O)(c1ccccc1)C(c1ccccc1)c1cnc2ccc(Br)cc2c1 (centres unmarked) [Compound 7]
MIC [1]: 47.54 microgram/ml
pIC50 (M. Smegmatis ATCC607): 4.6
melting point: 98 °C

COc1nc2ccc(Br)cc2cc1C(c1ccccc1)C(O)(CCN(C)C)c1cccc(F)c1F (centres unmarked) [Compound 114]
MIC [1]: 43.01 microgram/ml
pIC50 (M. Smegmatis ATCC607): 5.9
melting point: 210 °C

COc1nc2ccccc2cc1C(c1ccccc1)C(O)(CCN(C)C)c1ccccc1 (single isomer, unassigned) [Compound 40]
MIC [1]: 21.38 microgram/ml
pIC50 (M. Smegmatis ATCC607): 4.7

COc1nc2ccc(Br)cc2cc1C(c1ccccc1)C(O)(CCN1CCCCC1)c1ccccc1 (centres unmarked) [Compound 48]
MIC [1]: 8.65 microgram/ml
pIC50 (M. Smegmatis ATCC607): 5.8

COCCOc1nc2ccc(Br)cc2cc1C(c1ccccc1)C(O)(CCN(C)C)c1cccc(F)c1 (single isomer, unassigned) [Compound 165]
MIC [1]: 2.26 microgram/ml
pIC50 (M. Smegmatis ATCC607): 6.6

COc1nc2ccc(Br)cc2cc1C(c1ccccc1)C(O)(CCN)c1ccccc1 (centres unmarked) [Compound 9]
MIC [1]: 37.92 microgram/ml
pIC50 (M. Smegmatis ATCC607): 4.5
melting point: 204 °C

COc1nc2ccc(Br)cc2cc1C(c1ccccc1)C(O)(CCN1CCCCC1)c1ccc2ccccc2c1 (centres unmarked) [Compound 129]
MIC [1, 2]: 47.3 µg/mL (≈ 79.4 µM)
pIC50 (M. Smegmatis ATCC607): 4.7

COc1nc2cc(Br)ccc2cc1C(c1ccccc1)C(O)(CCN(C)C)c1cccc2ccccc12 (single isomer, unassigned) [Compound 217]
MIC [1]: 44.13 microgram/ml
pIC50 (M. Smegmatis ATCC607): 6.9

COc1nc2ccc(Br)cc2cc1C(c1ccccc1)C(O)(CC[N+](C)(C)C)c1cccc2ccccc12.[I-] (racemic) [Compound 103]
MIC [1]: 5.54 microgram/ml
pIC50 (M. Smegmatis ATCC607): 5.9

COc1nc2ccc(Br)cc2cc1C(c1ccccc1)C(O)(CCN1CCN(C)CC1)c1ccc2cc(Br)ccc2c1 (single isomer, unassigned) [Compound 154]
MIC [1]: 68.95 microgram/ml
pIC50 (M. Smegmatis ATCC607): 4.9

COc1nc2ccc(Br)cc2cc1C(c1ccccc1)C(O)(CCN1CCCCC1)c1ccc2cc(Br)ccc2c1 (centres unmarked) [Compound 166]
MIC [1]: 67.45 microgram/ml
pIC50 (M. Smegmatis ATCC607): 4.1

COc1nc2ccc(Br)cc2cc1C(c1ccccc1)C(O)(CCN1CCCC1)c1ccc2ccccc2c1 (centres unmarked) [Compound 171]
MIC [1]: 46.19 microgram/ml
pIC50 (M. Smegmatis ATCC607): 4.3

COc1ccc2nc(OC)c(C(c3ccccc3)C(O)(CCN(C)C)c3ccccc3)cc2c1 (single isomer, unassigned) [Compound 35]
MIC [1]: 1.82 microgram/ml
pIC50 (M. Smegmatis ATCC607): 6.8

COc1nc2ccc(Br)cc2cc1C(c1ccccc1)C(O)(CCN(C)C)c1cccc2ccccc12 (centres unmarked) [Compound 15]
MIC [1]: 2.78 microgram/ml
pIC50 (M. Smegmatis ATCC607): 6.5

COc1nc2ccc(F)cc2cc1C(c1ccccc1)C(O)(CCN(C)C)c1cc(F)cc(F)c1 (racemic) [Compound 208]
MIC [1]: 0.38 microgram/ml
pIC50 (M. Smegmatis ATCC607): 7.9

COc1nc2ccc(F)cc2cc1C(c1ccccc1)C(O)(CCN(C)C)c1ccccc1 (single isomer, unassigned) [Compound 29]
MIC [1]: 44.46 microgram/ml
pIC50 (M. Smegmatis ATCC607): 5.9

COc1nc2ccc(Br)cc2cc1C(c1ccc(Cl)cc1)C(O)(CCN(C)C)c1ccccc1 (single isomer, unassigned) [Compound 37]
MIC [1]: 0.34 microgram/ml
pIC50 (M. Smegmatis ATCC607): 7.9

COc1ccc2cc(C(O)(CCN(C)C)C(c3ccccc3)c3cc4cc(Br)ccc4nc3OC)ccc2c1 (single isomer, unassigned) [Compound 163]
MIC [1]: 46.51 microgram/ml
pIC50 (M. Smegmatis ATCC607): 5.9

COc1nc2ccc(Br)cc2cc1C(c1ccccc1)C(O)(CCn1ccnc1)c1ccccc1 (centres unmarked) [Compound 50]
MIC [1]: 52.85 microgram/ml
pIC50 (M. Smegmatis ATCC607): 5.0

COc1nc2ccc(Br)cc2cc1C(c1ccccc1)C(O)(CCCN1CCOCC1)c1cccc2ccccc12 (single isomer, unassigned) [Compound 211]
MIC [1]: 61.16 microgram/ml
pIC50 (M. Smegmatis ATCC607): 4.1

COc1nc2ccc(Br)cc2cc1C(c1ccccc1)C(O)(CC[N+](C)(C)C)c1cccc2ccccc12.[I-] (single isomer, unassigned) [Compound 121]
MIC [1]: 2.21 microgram/ml
pIC50 (M. Smegmatis ATCC607): 5.9

COc1nc2ccc(Br)cc2cc1C(c1ccccc1)C(O)(CCN(C)C)c1ccc2c(c1)OCCO2 (racemic) [Compound 78]
MIC [1]: 44.76 microgram/ml
pIC50 (M. Smegmatis ATCC607): 5.8

COc1nc2cc(C)c(Br)cc2cc1C(c1ccccc1)C(O)(CCN(C)C)c1cccc2ccccc12 (single isomer, unassigned) [Compound 225]
MIC [1]: 1.80 microgram/ml
pIC50 (M. Smegmatis ATCC607): 6.6

COc1nc2ccc(Br)cc2cc1C(c1ccccc1)C(O)(CCn1ccnc1)c1ccccc1 (centres unmarked) [Compound 49]
MIC [1, 2]: 52.9 µg/mL (≈ 100 µM)
pIC50 (M. Smegmatis ATCC607): 5.4

COc1nc2ccc(Br)cc2cc1C(c1ccccc1)C(O)(CCN1CCCCC1)c1ccc2cc(Br)ccc2c1 (centres unmarked) [Compound 155]
MIC [1, 2]: 67.5 µg/mL (≈ 100 µM)
pIC50 (M. Smegmatis ATCC607): 4.9

COc1nc2ccc(Br)cc2cc1C(c1ccccc1)C(O)(CCN(C)C)C1CCN(C(=O)c2ccccc2)CC1 (single isomer, unassigned) [Compound 201]
MIC [1]: 9.77 microgram/ml
pIC50 (M. Smegmatis ATCC607): 5.7

COc1nc2ccc(Br)cc2cc1C(c1ccccc1)C(O)(CC[N+](C)(C)C)c1cccc2ccccc12.[I-] (single isomer, unassigned) [Compound 102]
MIC [1]: 2.21 microgram/ml
pIC50 (M. Smegmatis ATCC607): 6.5

COCCOc1nc2ccc(Br)cc2cc1C(c1ccccc1)C(O)(CCN(C)C)c1cccc(F)c1 (single isomer, unassigned) [Compound 164]
MIC [1]: 0.36 microgram/ml
pIC50 (M. Smegmatis ATCC607): 7.9

COc1nc2ccc(Br)cc2cc1C(c1ccccc1)C(O)(CC[N+](C)(C)[O-])c1ccccc1 (centres unmarked) [Compound 11]
MIC [1, 2]: 41.4 µg/mL (≈ 79.4 µM)
IC50 (M. Smegmatis ATCC607): 25.1 µM
melting point: 208 °C

CCN(CC)CCC(O)(c1ccccc1)C(c1ccccc1)c1cc2cc(Br)ccc2nc1OC (centres unmarked) [Compound 18]
MIC [1, 2]: 10.6 µg/mL (≈ 19.9 µM)
IC50 (M. Smegmatis ATCC607): 0.2 µM

CN(C)CCC(O)(c1ccccc1)C(c1ccccc1)c1cc2cc(Br)ccc2n(C)c1=O (single isomer, unassigned) [Compound 107]
MIC [1]: 44.13 microgram/ml
pIC50 (M. Smegmatis ATCC607): 5.8

COc1nc2ccc(Br)cc2cc1C(c1ccccc1)C(O)(CCN(C)C)c1ccc(F)c(F)c1 (racemic) [Compound 196]
MIC [1]: 1.71 microgram/ml
pIC50 (M. Smegmatis ATCC607): 6.6

COc1nc2ccc(Br)cc2cc1C(c1ccccc1)C(O)(CCN(C)C)c1ccc2c(c1)OCCO2 (racemic) [Compound 77]
MIC [1]: 8.93 microgram/ml
pIC50 (M. Smegmatis ATCC607): 7.2

COc1nc2ccc(Br)cc2cc1C(c1ccccc1)C(O)(CCN1CCN(C)CC1)c1cc(Br)cc2ccccc12 (single isomer, unassigned) [Compound 151]
MIC [1]: 13.76 microgram/ml
pIC50 (M. Smegmatis ATCC607): 5.0

COc1nc2ccc(Br)cc2cc1C(c1ccccc1)C(O)(CC[N+](C)(C)C)c1ccccc1.[I-] (centres unmarked) [Compound 10]
MIC [1, 2]: 10.3 µg/mL
IC50 (M. Smegmatis ATCC607): 2.51 µM
melting point: 198 °C

COc1nc2ccc(Br)cc2cc1C(c1ccccc1)C(O)(CCN(C)C)c1ccccc1F (racemic) [Compound 69]
MIC [1]: 0.13 microgram/ml
pIC50 (M. Smegmatis ATCC607): 8.5

COc1nc2ccc(Br)cc2cc1C(c1ccccc1)C(O)(CCCCN(C)C)c1cccc2ccccc12 (single isomer, unassigned) [Compound 197]
MIC [1]: 9.25 microgram/ml
pIC50 (M. Smegmatis ATCC607): 6.6

COc1nc2ccc(Br)cc2cc1C(c1ccccc1)C(O)(CCCN1CCCC1)c1ccc2ccccc2c1 (single isomer, unassigned) [Compound 132]
MIC [1]: 47.31 microgram/ml
pIC50 (M. Smegmatis ATCC607): 4.4

COc1nc2ccc(Br)cc2cc1C(c1ccccc1)C(O)(CC[N+](C)(C)[O-])c1cccc2ccccc12 (centres unmarked) [Compound 99]
MIC [1, 2]: 9.06 µg/mL (≈ 15.9 µM)
IC50 (M. Smegmatis ATCC607): 0.0126 µM
melting point: 218 °C

COc1nc2ccc(Br)cc2cc1C(c1ccccc1)C(O)(CCN(C)C)c1cccc(F)c1 (centres unmarked) [Compound 39]
MIC [1]: 8.30 microgram/ml
pIC50 (M. Smegmatis ATCC607): 6.1
